This is an account of results in patent publication US8673578B2, “Methods of identifying antagonists of the hTAS2R46 bitter taste receptor” (Deutsches Institut für Ernahrungsforschung Potsdam-Rehbrücke, priority 2009, dated 2014).

The target in test [1] is T1, hTAS2R46 (Homo sapiens, UniProt P59540).
T1 construct: expressed in transfected cells; host or cells: HEK293T cells stably expressing chimeric Gα16gust44, transient transfection
T1 sequence (P59540 1-309): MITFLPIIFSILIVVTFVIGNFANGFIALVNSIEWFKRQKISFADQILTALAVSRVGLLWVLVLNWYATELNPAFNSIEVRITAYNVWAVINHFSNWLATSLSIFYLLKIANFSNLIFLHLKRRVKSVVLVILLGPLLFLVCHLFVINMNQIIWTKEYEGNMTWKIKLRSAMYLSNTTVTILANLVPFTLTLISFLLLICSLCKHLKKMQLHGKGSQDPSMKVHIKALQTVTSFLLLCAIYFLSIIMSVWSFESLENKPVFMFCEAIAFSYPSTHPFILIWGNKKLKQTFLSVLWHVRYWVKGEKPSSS
As to the kind of experiment: calcium imaging (FLIPR), effect on agonist-dependent hTAS2R activation. The following applies: presence of agonist strychnine 3 μM. It counts as cell-based. The text has this: (§1) Human TAS2R cDNAs were cloned into pcDNA5/FRT (Invitrogen, San Diego, Calif.). For adequate plasma membrane targeting, receptor cDNA was fused to the aminoterminal sequence of the rat somatostatin type 3 receptor at the aminoterminus of the recombinant protein (Bufe, B., T. Hofmann, et al. (2002) Nat Genet. 32(3): 397-401). For immunological detection, the Herpes simplex Glycoprotein D epitope was supplemented at the carboxyterminus of the recombinant protein (Bufe et al., supra). Receptor constructs were transiently transfected into HEK293T cells stably expressing the chimeric G protein subunit Gα16gust44 (Ueda, T., S. Ugawa, et al. (2003) J Neurosci 23(19): 7376-80) using Lipofectamine 2000 (Invitrogen, San Diego, Calif.) in 96-well plates.
(§2) Calcium Imaging experiments were performed 24 h after transfection using a Fluorometric Imaging Plate Reader (FLIPR, Molecular Devices, Munich, Germany) as previously described (Bufe et al., supra). Taste active compounds were ordered from Sigma (Sigma-Aldrich, Taufkirchen, Germany). Absinthin, 3β hydroxy dihydro costunolide and 3β hydroxy pelenolide were kindly provided by Giovanni Appendino (Novara, Italy). Test substances were directly dissolved in C1 buffer (130 mM NaCl, 10 mM Na-Hepes, 10 mM Glucose, 5 mM KCl, 2 mM CaCl2, pH 7.4) or in DMSO, respectively. DMSO stocks were further diluted in C1 buffer not exceeding a final DMSO concentration of 1% on the cells. For the investigation of antagonistic effects, test substances were premixed. Agonists were applied at concentrations corresponding to EC90, except where indicated otherwise (Table 2). Data were collected from 3 independent experiments performed in quadruplicates and processed with SigmaPlot (SPSS, Chicago, Ill.). Fluorescence signals after application of test substances were corrected for and normalized to background fluorescence (ΔF/F═(F−F0)/F0), and baseline noise was subtracted. Calculation of dose-response curves was done by nonlinear regression using the function f(y)=((a−d)/(1+(x/EC50)^nH)+d).
To test 3β hydroxy dihydro costunolide and 3β hydroxy pelenolide for antagonistic or enhancing effects on hTAS2R activation, transfected cells were stimulated with cognate agonist bitter substances at EC90 concentrations (Table 2) without 3β hydroxy dihydro costunolide and 3β hydroxy pelenolide. The cellular responses after application of the agonist alone were set to 100%, responses obtained after coapplication of agonists and 100 μM 3β hydroxy dihydro costunolide or 100 μM 3β hydroxy pelenolide are shown relative to this value (FIG. 4).
Next we determined concentrations of half-maximal inhibition of TAS2R46. FIG. 5 illustrates the concentration-inhibition curves of TAS2R46 activated by picrotoxinin in the presence of various concentrations of 3β hydroxy dihydro costunolide or 3β hydroxy pelenolide. […] In agreement with the data described above the costunolide analog appears to be more potently inhibiting TAS2R46 than the pelenolide analog. […] As expected 3β hydroxy pelenolide has to be employed at ˜6 fold higher concentrations than 3β hydroxy dihydro costunolide to achieve 50% receptor inhibition.
Next, we established concentration-response curves for strychnine at TAS2R46 in the presence of various concentrations of 3β hydroxy dihydro costunolide.
(§3) Finally, the impact of chemical modifications on the antagonistic properties of 3β hydroxy dihydro costunolide on hTAS2R46-expressing cells was studied. Derivatives of 3β hydroxy dihydro costunolide with site-directed modifications at C3 and C11 were generated (FIG. 7A) These derivatives were tested for activation or inhibition of hTAS2R46-expressing cells in the absence or presence of the agonist strychnine (3 μM) and half-maximum effective concentrations (EC50) or half-maximal inhibitory concentrations were calculated (FIG. 7B).

Test [2] concerns the target T1, hTAS2R46. As to the kind of experiment: calcium imaging (FLIPR), activation of hTAS2R-transfected HEK293T-Gα16gust44 cells. Format: cell-based. The following applies: absence of agonist.
Excerpt: as §1
as §2, with “f(y)=((a−d)/(1+(x/EC50)^nH)+d). […]” for “f(y)=((a−d)/(1+(x/EC50)^nH)+d).”
as §3

For `C/C1=C\CC(=O)/C(C)=C/[C@H]2OC(=O)[C@@H](C)[C@@H]2CC1` [3keto dihydro costunolide], the “action on hTAS2R46-expressing cells (inhibition)” value in test [1] is given as “antagonists”. `CC(=O)O[C@H]1C/C=C(\C)CC[C@H]2[C@H](C)C(=O)O[C@@H]2/C=C/1C` [3β hydroxy dihydro costunolide acetate]: the “action on hTAS2R46-expressing cells (activation)” value in test [2] is recorded as “agonists”. Consider `C=C1C(=O)O[C@@H]2/C=C(\C)CC/C=C(\C)CC[C@@H]12` [Costunolide, reference compound], for which the “action on hTAS2R46-expressing cells (activation)” value in test [2] was “agonist”. The same measure, in the same setting: the same measure for `C/C1=C\[C@H]2OC(=O)[C@@H](C)[C@@H]2CC/C(C)=C/CC1` [dihydro costunolide]: “no influence on the agonistic properties”.
